Data on 13 molecules can be found in patent US12473582B2, “Method and agents for detecting luciferase activity” (LIGHT BIO, INC., priority 2015, dated 2025).

Data set [1] deals with T1, cold extract from Neonothopanus nambi (Neonothopanus nambi, UniProt A0A3G9K5C8).
T1 construct: an extract comprising the enzymes of the fungal bioluminescent system and free from low-molecular-weight components; from tissue; host or cells: Neonothopanus nambi mycelium, crude cold extract (30000 g supernatant of the homogenate)
T1 sequence (A0A3G9K5C8 whole entry): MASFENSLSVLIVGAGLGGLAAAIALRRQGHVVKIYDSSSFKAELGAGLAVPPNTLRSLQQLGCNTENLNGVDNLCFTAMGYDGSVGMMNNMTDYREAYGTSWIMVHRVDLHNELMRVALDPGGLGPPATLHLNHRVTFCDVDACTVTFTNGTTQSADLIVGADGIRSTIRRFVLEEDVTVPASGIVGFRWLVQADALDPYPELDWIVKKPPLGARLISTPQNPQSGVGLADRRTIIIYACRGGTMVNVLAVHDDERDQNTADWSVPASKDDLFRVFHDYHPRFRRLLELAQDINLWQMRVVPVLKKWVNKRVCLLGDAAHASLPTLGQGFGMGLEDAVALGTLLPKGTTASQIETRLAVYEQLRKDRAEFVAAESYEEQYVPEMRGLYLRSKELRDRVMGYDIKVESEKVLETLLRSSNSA
The data set can be described thus: Bioluminescent test of hot-extract HPLC fractions with cold extract and NADPH. Particulars: cold extract from N. nambi, NADPH; values normalised against optical density at 360 nm. The format is biochemical. The procedure:
The obtained extracts were tested in a bioluminescent test described by Oliveira and Stevani (Photochem. Photobiol. Sci., 2009, 8, 1416) using a cold extract from Neonothopanus nambi.
In order to obtain a cold extract, the mycelium was washed to get rid of culture medium, then, it was put into a 200-fold amount of distilled water for 15 hours at 26° C. Thereafter, the mycelium was separated from water by centrifugation, then, it was homogenized on ice in 10 volumes of 0.2 M phosphate buffer, pH 7.5 and sonicated on ice for 10 minutes using Ultrasonic disintegrator UD-20. The homogenate was centrifuged at 30000 g at […] for 20 minutes. The obtained cold extract was stored at −20° C.
500 μl of the following components were mixed for a bioluminescent test: 25 μL of cold extract, 2 μL of hot extract, 442 μL 0.2 M phosphate buffer, pH 7.5, 1 μL 1 M DTT and 10 μL 1% Triton X-100. The bioluminescent reaction was initiated in a Glomax 20/20 (Promega, USA) luminometer cuvette by adding 20 μL 20 mM NADPH. Luminescence was measured at 23±1° C.
The maximum luminescence of fractions 1-6 was 24000, 80, 6670, 40, 1300 and 1000 correspondingly (a signal-to-noise ratio of the luminometer, the values were normalised against optical density at 360 nm).

Data set [2] deals with T2, luciferase and hispidin-3-hydroxylase (cold extract of N. nambi) (Neonothopanus nambi, UniProt A0A3G9K5C8).
T2 construct: an extract comprising the enzymes of the fungal bioluminescent system and free from low-molecular-weight components; from tissue; host or cells: Neonothopanus nambi mycelium, crude cold extract (30000 g supernatant of the homogenate)
T2 sequence (A0A3G9K5C8 whole entry): as above
In words: Dependence of maximal bioluminescence (Imax) on reagent concentration in the reaction mixture. The format is biochemical. The procedure: The concentrated hispidin solution was used to produce dilutions of 1/50, 1/500, 1/5000, 1/50000 in an aqueous solution with 0.1% Triton X-100 and 0.1% formic acid.
The reaction mixture in the bioluminometer cuvette comprised: 100 μL 0.1 M phosphate buffer, pH 7.5, containing 0.1 mM DTT, 4 μL of the cold extract of N. nambi, 1-5 μL of hispidin dilutions. The bioluminescent reaction was activated by adding 4 μL 10 mM NADPH. Bioluminescence was measured at 25° C.
The reaction mixture in the bioluminometer cuvette comprised: 100 μL 0.1 M phosphate buffer, pH 7.5, comprising 0.1 mM DTT, 4 μL of the cold extract of N. nambi, 4 μL 64 μM hispidin solution and various amounts of Triton X-100 detergent. The bioluminescent reaction was activated by adding 4 μL 10 mM NADPH. […] The optimal detergent concentration in the reaction mixture was determined as 0.015 to 0.03%. The maximum detergent concentration at which bioluminescence was observed was 0.5%.
The reaction mixture in the bioluminometer cuvette comprised: 100 μL 0.1 M phosphate buffer, pH 7.5, comprising 0.1 mM DTT, 4 μL of the cold extract of N. nambi, 4 μL […] hispidin solution. The bioluminescent reaction was activated by adding various amounts of NADPH. […] The minimum NADPH concentration which provided detectable bioluminescence was 20 μM.
The reaction mixture in the bioluminometer cuvette comprised: 100 μL 0.1 M phosphate buffer, pH 7.5, comprising various concentrations of DTT, 4 μL of the cold extract of N. nambi, 4 μL 64 μM hispidin solution. The bioluminescent reaction was activated by adding 4 μL 10 mM NADPH. […] The optimal DTT concentration in the reaction mixture was 0.5 to 3 mM. The maximum DTT concentration which provided bioluminescence was 10 mM.

Data set [3] concerns luciferase and hispidin-3-hydroxylase. In words: Detection of luciferase and hispidin-3-hydroxylase in fungal cold extracts with hispidin and NAD(P)H. The format is biochemical. On the procedure:
Commercially available hispidin (Sigma-Aldrich, USA) was used for detecting luciferase and hispidin-3-hydroxylase in the cold extracts obtained from the mycelia of Neonothopanus nambi, Mycena citricolor, Panellus stipticus, and Armillaria borealis as described in Example 1.
Hispidin was dissolved in DMSO to a final concentration of 8 mg/ml (32 mM). Then, the obtained concentrated solution was diluted 500-fold by aqueous solution containing 0.1% Triton X-100 and 0.1% formic acid. Hispidin concentration in the obtained working solution was 64 μM.
The reaction mixture in Glomax 20/20 cuvette (Promega, USA) comprised: 100 μL 0.2 M phosphate buffer, pH 7.5, comprising 0.1 mM DTT and 0.1 mM EDTA, 1-5 μL of fungal extract, 4 μL 64 μM hispidin solution. The luminescent reaction was initiated by adding 4 μL 10 mM NADPH.
In a different experiment, the same samples were tested for the presence of luciferase and hispidin-3-hydroxylase activities as described above with the exception that NADH was used (instead of NADPH). In this case, luminescence was 2-3 times lower than when using NADPH.

Data set [4] can be described thus: Stability of 3-hydroxyhispidin. The format is physicochemical.
The nature of data set [5]: Solubility of 3-hydroxyhispidin. The data set is classed as physicochemical.
In another data set the test system is luciferase. The data set can be described thus: Detection of luciferase in microsomal fractions of cold extracts with 3-hydroxyhispidin. The data set is classed as biochemical. Particulars: aliquots with 0.006 ng and 0.16 ng of luciferin; microsomal fractions of four fungi. The procedure: 3-hydroxyhispidin was obtained as described in Example 3. The microsomal fractions of the cold extracts of Neonothopanus nambi, Mycena citricolor, Panellus stipticus and Armillaria borealis were used as biological samples. The cold extracts were obtained as described in Example 2. The microsomal fractions were obtained as described in Example 3.
10 μg of 3-hydroxyhispidin were dissolved in 1 mL 50% water-acetonitrile mixture containing 0.1% formic acid.
During the experiment, in each case, the background luminescence of the microsomal fraction was measured in the first place, and then, at 0.7 and 1.55 minutes, 3-hydroxyhispidin solution aliquots were added, which contained 0.006 ng and 0.16 ng of luciferin, correspondingly.

A further data set deals with fungal bioluminescence. Particulars: isolated from Pleurotus japonicus; cited from earlier work.
The mark [6] stands for this setting: hispidin, NADPH, cold extract of N. nambi.
The mark [7] stands for this setting: 0.1 M phosphate buffer pH 7.5, 0.1 mM DTT, NADPH, 25° C.

As for 3.3-bishispidinyl [Fraction 2], in data set [1], the maximum luminescence was 80 signal-to-noise ratio of the luminometer.

Regarding `O[C@H](CS)[C@H](O)CS` (racemic) [DTT, dithiothreitol, reference compound], the “maximum DTT concentration which provided bioluminescence” value in data set [2] (setting [6]) is 10 mM.

For `O=c1cc(O)cc(/C=C/c2ccc(O)c(O)c2)o1` (single isomer, unassigned) [Fraction 1, (E)-6-(3,4-dihydroxystyryl)-4-hydroxy-2H-pyran-2-one], in data set [2] (setting [7]), the “hispidin concentration at which detectable luminescence was observed” value is ≥ 0.002 µM and the “optimal hispidin concentration in the reaction mixture” value worked out at 2.5 µM. The “hispidin concentration at which inhibition of the luminescent reaction was observed” value in data set [2] (probably substrate inhibition) is on record as “more than 5 μM”. In addition, the “luminescence of cold extracts after adding hispidin and NADPH” value in data set [3] (4 μL 64 μM hispidin, 4 μL 10 mM NADPH, cold extracts of four fungi) was “Luminescence was detected in all cases”. Besides, the maximum luminescence in data set [1] is given as 24000 signal-to-noise ratio of the luminometer.

Consider `O=c1cc(O)cc(/C=C\c2ccc(O)c(O)c2)o1` (single isomer, unassigned) [Fraction 3, (Z)-6-(3,4-dihydroxystyryl)-4-hydroxy-2H-pyran-2-one], for which the maximum luminescence in data set [1] is 6670 signal-to-noise ratio of the luminometer.

`O=c1cc(O)cc(/C=C/c2ccc(O)cc2)o1` (single isomer, unassigned) [Fraction 5, (E)-4-hydroxy-6-(4-hydroxystyryl)-2H-pyran-2-one]: the “maximum intensity of sample luminescence, times lower as compared to using hispidin” value in data set [3] (bisnoryangonin added instead of hispidin) was “approximately 10 times”. Also, the maximum luminescence in data set [1] is on record as 1300 signal-to-noise ratio of the luminometer.

Take `O=c1cc(O)cc(/C=C\c2ccc(O)cc2)o1` (single isomer, unassigned) [Fraction 6, (Z)-4-hydroxy-6-(4-hydroxystyryl)-2H-pyran-2-one]: the maximum luminescence in data set [1] is 1000 signal-to-noise ratio of the luminometer.

`O=c1oc(/C=C/c2ccc(O)c(O)c2)cc(O)c1O` [3-hydroxyhispidin, (E)-6-(3,4-dihydroxystyryl)-3,4-dihydroxy-2H-pyran-2-one]: the “storage time with no activity loss” value in data set [4] (lyophilized, −20° C., often no less than 60 days, normally no less than a year) is reported as “no less than 30 days”. Further, in data set [4] (water solution), the thermal stability result was “can sustain short-term boiling”. In addition, the stability during chromatography entry in data set [4] (water-acetonitrile mixture with formic acid, final concentration 0.1%) is “shows stability”. Moreover, the “solubility in aprotic solvents” value in data set [5] (DMSO, acetonitrile, acetone, etc.) is on record as “readily soluble”. For the same molecule, in data set [5] (water), the solubility in water result is recorded as “moderately soluble”. For the same molecule, the “luminescence of microsomal fractions after adding 3-hydroxyhispidin” value with luciferase is recorded as “luminescence was detected”.

Take `O=c1cc(O)cc(C=Cc2cc(O)c(O)cc2-c2c(O)cc(C=Cc3ccc(O)cc3)oc2=O)o1` [Fraction 4, 3-bisnoryangonyl-14-hispidin]: the maximum luminescence in data set [1] is 40 signal-to-noise ratio of the luminometer.

For `CC1=C2C(=C[C@@](C)(CO)[C@@H]2O)C(=O)[C@](C)(O)C12CC2` [illudin S], the bioluminescent activity result in the data set with fungal bioluminescence was “did not show bioluminescent activity”.

As for `Cc1cc2nc3c(=O)[nH]c(=O)nc-3n(C[C@H](O)[C@H](O)[C@H](O)COC3OC(CO)C(O)C3O)c2cc1C` (some centres unmarked) [lampteroflavin], the bioluminescent activity result in the data set on fungal bioluminescence is reported as “did not show bioluminescent activity”.

Regarding `Cc1cc2nc3c(=O)[nH]c(=O)nc-3n(C[C@H](O)[C@H](O)[C@H](O)CO)c2cc1C` [riboflavin], the bioluminescent activity entry in the data set on fungal bioluminescence is reported as “did not show bioluminescent activity”.

Turning to Triton X-100 [reference compound], the “maximum detergent concentration at which bioluminescence was observed” value in data set [2] (setting [6]) stood at 0.5%.

Turning to “nicotinamide adenine dinucleotide phosphate [NADPH, reference compound]”, in data set [2] (hispidin, cold extract of N. nambi, pH 7.5), the “minimum NADPH concentration which provided detectable bioluminescence” value was found to be 20 µM.
